# From patent US8962587B2, “Gene delivery of OCT4 and SirT1 and pharmaceutical compositions thereof” (Taipei Veterans General Hospital, priority 2011, dated 2015)
# System: aRPE cells
# Experiment: intracellular ROS, GSH, MDA, antioxidant enzyme activity and survival in aRPE cells (basal, H2O2, BSO, Tempol)
# Type: cell-based, human
# Conditions: aRPE-PU cells, pretreatment 0.5 mmol/L, then 100 μM H2O2, p<0.05 vs H2O2
# Method: The results were expressed as nmol/g protein. Total SOD activity was determined by Superoxide Dismutase Activity Colorimetric Assay Kit (Abcam) according to manufacturer's protocol. SOD activity was expressed as units/g protein. GSH-Px and CAT activities were measured by glutathione peroxidase cellular activity assay kit and catalase assay kit, both are purchased from Sigma.
# Cultured aRPE cells were washed with PBS twice and treated with 100 μM H2O2. After 8 hours, the medium was removed, and the cells were collected for the subsequent experiments. […] In brief, cells were incubated with […] DCFH-DA in culture medium for 30 min at 37° C., followed by washing with PBS and flow cytometric analysis. The intracellular GSH content was detected by colorimetric assay using the GSH-400 kit (OXIS International, Portland, Oreg., USA). In the GSH-400 assay, 4-chloro-1-methyl-7-trifluoromethyl-quinolinium methylsulfate was added to react with all mercaptans in the sample, leading to the formation of substitution products, […]. Then, 30% sodium hydroxide was used to mediate a β-elimination reaction and specifically transform GSH-thioester into a chromophoricthione with a maximal absorbance wavelength at 400 nm that was detected by a spectrophotometer.
compound,measurement,value
"CC1(C)CC(O)CC(C)(C)N1[O] [Tempol, 4-hydroxy-2,2,6,6-tetramethylpiperidinyloxy]",H2O2-induced ROS production,decreased
same,H2O2-induced cell death,decreased
